Values quoted from earlier work, collected in patent US20100081719A1 (priority 2006, published 2010).

Experiments:
[1] = test system: subjects suffering from fibromyalgia syndrome; conditions: cited from earlier work; for Subjects with significant clinical improvement: after one month; for Difference from placebo: at three months
patients with FMS = conditions: open-label; 11 completing patients; cited from earlier work

Compound	Subjects with significant clinical improvement [1] [%]	Difference from placebo [1]	Completing patients with a positive response (50% or greater improvement in two different measurements of overall pain) (patients with FMS)	Completing patients with insomnia requiring adjunctive medical therapy (patients with FMS)
CN(C)CCC=C1c2ccccc2CCc2ccccc21 [amitriptyline]	21	no difference		
CN(C)CCC=C1c2ccccc2C=Cc2ccccc21 [cyclobenzaprine]	12	no difference		
COc1ccc(C(CN(C)C)C2(O)CCCCC2)cc1 (stereo not drawn) [venlafaxine]			Six of 11	3 of 11
